What all share (assay): NCI tumour cell line growth inhibition, 48 h
Assay [1] relates to BT-549 breast.
Assay [2] has as its system HCT-15 colon.
In assay [3] the test system is HOP-62 NSCLC.
For assay [4], the system named is HS 578T breast.
Assay [5] has as its system HT29 colon.
Assay [6] has as its system NCI-H460 lung.
The subject of assay [7] is OVCAR-5 ovarian.
Assay [8] deals with SF-295 CNS.
In assay [9] the test system is SR leukemia.
Assay [10] has as its system U251 CNS.

Values joined by “and” are separate entries in the source; they are usually repeats but may differ in a detail not shown here. Equal entries are not always repeated.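 Growth conditions: 96-well plates. Treatment: test compound, 48 hours, 5 concentrations. Analysis: linear interpolation between bracketing concentrations; unreached endpoints set to highest concentration. At the GI50, growth is halved. TGI is the concentration that stops growth completely.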 Bounds are passed on as bounds.

As to `Clc1ccccc1CNc1c2ccccc2nc2ccccc12`, the GI50 in [1] is 4.17 µM; in assay [2], 1.69 µM; in [3], 3.62 µM; in assay [4], 5.97 µM; in assay [5] it was 1.67 µM; in assay [6], 1.7 µM. The GI50 in assay [7] was 2.16 µM; in [8], 1.59 µM; in assay [9], 1.89 µM; in assay [10], 2.36 µM. Further, the TGI in [1] came out at 12 µM; in assay [2], 6.85 µM; in assay [3], 12.8 µM; in [4], 18.1 µM; in assay [5], 9.02 µM; in assay [6], 6.19 µM. The TGI in assay [7] was found to be 9.09 µM; in assay [8] it was 7.31 µM; in [9], 6.99 µM; in [10], 9.7 µM.
In the case of `O=[N+]([O-])c1cc(C(F)(F)F)ccc1Sc1ccc(C(F)(F)F)cc1[N+](=O)[O-]`, the GI50 in [1] was 7.52 µM; in assay [2], 6.84 µM; in assay [3], above 100 µM; in [4], 18.6 µM; in [5], 3.28 µM; in [6] it was 19 µM. In addition, the GI50 was 43 µM in assay [7], 31.4 µM in assay [8], 3.65 µM in assay [9] and 12.9 µM in [10]. The TGI is above 100 µM in assay [1]; above 100 µM in assay [2]; above 100 µM in assay [3]; above 100 µM in [4]; 9.79 µM in assay [5]; above 100 µM in assay [6]. Also, the TGI in assay [7], in assay [8], in assay [9] and in assay [10] was above 100 µM each time.
For `CN(Cc1cc(Br)cc(Br)c1O)Cc1c(O)ccc2ccccc12`, the TGI in [1] was 49 µM; in assay [2], above 100 µM; in assay [3], 38.9 µM; in [4] it was 77.2 µM; in assay [5], 37.8 µM; in assay [6] it was 54.2 µM. Also, the TGI in assay [7] was 37.1 µM; in assay [8], 47.5 µM; in assay [9], 55.6 µM; in assay [10] it was 41 µM.
Take `COc1ccc2c(c1)C(=O)/C(=C/c1ccc([N+](=O)[O-])o1)O2`: the GI50 was 1.53 µM in assay [1]; 0.613 µM in assay [2]; 1.82 µM in assay [3]; 2.58 µM in assay [4]; 0.954 µM in assay [5]; 1.75 µM in assay [6]. For the same compound, the GI50 in assay [7] was 1.8 µM; in assay [8], 2.35 µM; in assay [9], 0.198 µM; in [10], 1.64 µM. Moreover, the TGI was 3.44 µM in [1]; 2.14 µM in [2]; 4.09 µM in assay [3]; above 26.8 µM in assay [4]; 2.74 µM in assay [5]; 3.83 µM in assay [6]. Moreover, the TGI in assay [7] was determined as 3.64 µM; in assay [8] it was 9.89 µM; in assay [9] it was 1.23 µM; in [10], 3.43 µM.
As for `CN1CCN(c2ccc(NC(=O)c3cncnc3Nc3ccc(OCc4ccccn4)c(Cl)c3)cc2)CC1`, the GI50 was 5.18 µM in assay [1]; 0.961 µM in [2]; 4.31 µM in [3]; 4.17 µM in assay [4]; 0.948 µM in assay [5]; 2.27 µM in assay [6]. Also, the GI50 in [7] was 3.5 µM; in [8], 5.98 µM; in [9] it was 0.742 µM; in assay [10], 2.64 µM. The TGI was determined as 11.1 µM in assay [1]; 3.19 µM in [2]; 10.7 µM in assay [3]; 13.5 µM in assay [4]; 4.49 µM in [5]; 7.57 µM in [6]. Further, the TGI in assay [7] is 9.11 µM; in assay [8], 13.1 µM; in [9], 2.03 µM; in assay [10] it was 8.53 µM.
In the case of `CCN(CC)C(=S)SCN1C(=O)c2ccccc2S1(=O)=O`, the GI50 in [1] is 63.4 µM; in assay [2] it was 50.9 µM; in assay [3], 39.3 µM; in [4] it was above 100 µM; in assay [5] it was 25.1 µM; in [6], 0.928 µM. For the same compound, the GI50 was above 68.4 µM in [7], above 67.2 µM in assay [8], below 0.01 µM in assay [9] and 52.5 µM in assay [10]. Further, the TGI in [1] is above 100 µM; in assay [2], above 100 µM; in assay [3], above 100 µM; in [4], above 100 µM; in assay [5] it was above 74.9 µM; in assay [6], above 100 µM. Further, the TGI was above 100 µM in [7], above 100 µM in assay [8], 27.7 µM in assay [9] and above 100 µM in assay [10].
With `COC(=O)c1cc2c3ccccc3[nH]c2c2sccc12`, the GI50 in assay [1] is 20.2 µM; in assay [2] it was 8.9 µM; in [3] it was 11.2 µM; in assay [4], 13.5 µM; in assay [5] it was 6.96 µM; in assay [6] it was 20.1 µM. Besides, the GI50 in [7] was 23.1 µM; in assay [8], 8.57 µM; in assay [9], 12.2 µM; in [10], 14.3 µM. Besides, the TGI in assay [1] amounted to 57 µM; in [2], 94.4 µM; in assay [3], 39.8 µM; in [4], 38.7 µM; in [5], 18.7 µM; in assay [6] it was 43.8 µM. In addition, the TGI in assay [7] is above 100 µM; in [8], 48.7 µM; in assay [9], 56.5 µM; in assay [10], 34 µM.
Turning to `Cc1ccc(NS(=O)(=O)c2cccc(C#N)c2)c2[nH]cc(C#N)c12`, the TGI in assay [1] is 65.8 µM and 48.4 µM; in assay [2], above 100 µM; in [3] it was 96.4 µM and > 100 µM; in assay [4], 78.8 µM and > 96.3 µM; in [5], above 100 µM; in assay [6] it was above 100 µM. Also, the TGI is above 92.7 µM in assay [7]; 49.7 µM and 52.9 µM in assay [8]; above 100 µM in assay [9]; above 100 µM in [10]. Further, the GI50 in assay [2] was 6.14 µM and 14.1 µM; in assay [3] it was 20.1 µM and 29.8 µM; in assay [4], 16.4 µM and 20 µM; in assay [5], 33.5 µM and 12.5 µM; in assay [6], 18.1 µM and 22.6 µM; in [7], 16.7 µM and 30.6 µM. Further, the GI50 in assay [8] is 2.85 µM and 2.22 µM; in assay [9], 18.2 µM and 6.8 µM; in [10], 17.5 µM and 15.2 µM.
